# “Also recorded” adds a separate entry of the source. Non-standard residues stand in square brackets, D forms with d. No end group written: not given here. pS = N[C@@H](COP(=O)(O)O)C(=O)O
# Legend:
# GST-Bcl-XL = GST-Bcl-XL (Homo sapiens, UniProt Q07817); assay: In vitro competition binding assay (BH3 peptides blocking GST-Bcl-XL binding to immobilized BAK BH3 peptide, ELISA)
# Experimental: FIG. 3(B) is a graphical representation of the results of an in vitro competition binding assay. Recombinant GST-Bcl-XL was incubated with a BAD BH3 peptide (residues 143–168 of SEQ ID NO: 2) phosphorylated on Ser155 (“BAD BH3-P”), a BAD BH3 peptide (residues 143–168 of SEQ ID NO: 2) unphosphorylated on Ser155 (“BAD BH3”), or a BAK BH3 peptide (residues 71–89; residues 1–20 of SEQ ID NO: 5) as a positive control, at the indicated concentrations. The reaction mixtures were then added to microtiter plates pre-coated with BAK BH3 peptide. The amount of bound GST-Bcl-XL was determined by ELISA using an anti-GST primary antibody and a horse-radish peroxidase-conjugated anti-mouse IgG secondary antibody with ABTS as substrate.
# Whether the addition of a phosphate group on BAD Ser155 interferes with this interaction was tested by measuring the affinity of BAD BH3 peptides for Bcl-XL in an in vitro competition binding assay. Synthetic BAD BH3 peptide encompassing BAD residues 143 to 168, was incubated with recombinant GST-Bcl-XL at the indicated concentrations (FIG. 3(b)). The affinity of the BAD BH3 peptide for GST-Bcl-XL was measured as the ability of the peptide to block subsequent binding of GST-Bcl-XL to a BAK BH3 peptide when the reacted mixture was added to a microtiter plate pre-immobilized with a BAK BH3 peptide, as detected by ELISA (triplicate samples, +/−standard deviation). […]
# BAD phosphorylation = BAD phosphorylation (test system not specified)
# Text: Similarly, inhibitors and activators of protein kinases are known and can be used as therapeutic agents (see, e.g., Levitski, 1994). […] It is preferred that the inhibitors and activators have selective actions on the kinase(s) acting upon the BAD, or fragment of BAD, of the present invention. […] Alternatively, in vivo testing could be done using a number of experimental approaches, and one example, as reported herein, utilizes the endogenous phosphorylation of BAD upon re-addition of IL-3 after withdrawal for two hours. Such standard testing systems could be used to test candidate compounds as inhibitors or activators of BAD phosphorylation.
# [1] = tested on: BAD Ser155 phosphorylation in HeLa cells; assay: BAD phosphorylation in HeLa cells (western blot band-shift / anti-phospho-Ser155 antibody); format: cell-based, human; conditions: for induction of band-shift (Ser155 phosphorylation) of HA-BAD S112A/S136A: transfected HeLa cells treated with the agent; for Ser155 phosphorylation following growth factor stimulation: results not shown
# Experimental: A mammalian expression vector encoding mutant HA-BAD S155A, derived from the shorter murine BAD of SEQ ID NO:3, was constructed. HA-BAD S155A has an amino acid sequence wherein the serine at a position corresponding to Ser155 is substituted with alanine. A western blot was performed on WCL prepared from cells expressing the shorter murine BAD (SEQ ID NO:3), HA-BAD S112A, HA-BAD S136A, or HA-BAD S155A, and probed with anti-HA antibody.
# A western blot analysis, probed with anti-HA antibody, was performed on lysates produced from the Forskolin treated and untreated (control) cells to determine whether Forskolin could induce the phosphorylation BAD or mutant BAD.
# HeLa cells transiently expressing HA-BAD, HA-BAD S155A, HA-BAD S112A/S136A, or HA-BAD S112A/S136A/S155A were treated with Forskolin or a buffer control.
# The HA-BAD S112A/S136A double mutant was transiently expressed in HeLa cells, and transfected cell cultures were treated with each of the GPCR ligands, individually and as a group. A western blot analysis, probed with anti-HA antibody, was performed on lysates produced from the treated and untreated (negative control) cells. […] Forskolin (FK) and no treatment (−) were positive and negative controls, respectively (FIG. 6(a), […], respectively).
# Non-transfected HeLa cells were treated with Forskolin or L-epinephrine, followed by western blot analysis of cell lysates using anti-BAD antibodies.
# Transformants were treated with L-epinephrine, then lysed and subjected to anti-HA western blot analysis.
# (§1) To further test whether phosphorylation of Ser155 is dependent on the PI 3-kinase/Akt pathway, HeLa cells were transfected with the mutant HA-BAD S155A and pretreated with Wortmannin, an inhibitor of PI 3-kinase. These cells were then stimulated with epidermal growth factor (EGF), lysed and analyzed by western blot analysis.
# For immunoprecipitation of all HA-BAD species, 1 μg of the anti-HA antibody was added to the cell lysates, and incubated at 4° C. for one hour. Protein G agarose (Pierce) was then added (50 μl/fraction of 50% slurry) and followed by a one hour incubation at 4° C. Beads were washed with RIPA buffer, boiled in loading buffer (2% SDS, 10% glycerol, 5% β-ME, 60 mM Tris, pH 6.8, 0.002% Bromophenol Blue) and loaded onto polyacrylamide gels. After electrophoresis, proteins were transferred to nitrocellulose membranes, and blots blocked in western wash buffer (40 mM Tris, pH 8.0, 150 mM NaCl, 0.2% NP-40) with 5% BSA for one hour at room temperature. Blots were incubated with primary antibody diluted in western wash buffer with 3% BSA at room temperature for 1–2 hours, washed with western wash buffer and incubated with secondary HRP-coupled antibody diluted in western wash buffer with 1.5% BSA, and washed extensively. Polypeptides were detected with the ECL chemiluminescence according to the manufacturers instructions (Amersham).
# [2] = tested on: BAD phosphorylation in Rat-1 cells; assay: BAD phosphorylation in Rat-1 cells (western blot band-shift / anti-phospho-Ser155 antibody); format: cell-based; conditions: for induction of band-shift of HA-BAD S112A/S136A: transfected Rat-1 fibroblasts
# Text: In the absence of a phospho-Ser155 antibody, it was difficult to conclude that this band-shift was solely the result of the phosphorylation of Ser155. However, it appeared that this response was at least primarily due to the phosphorylation at this site. This was based on the combined evidence, both in vitro and in cells, as described above (FIGS. 1, 2 and 4–7) and the fact that Ser155 is the only site of BAD homologous to the substrate consensus sequence of PKA.
# Whether the BAD Ser155 kinase, PKA, is also activated by growth factors, and if so, whether such activation is PI 3-kinase dependent, was investigated. […] Cell lysates were analyzed via western blot analysis, probed using anti-HA antibody. […] However, the magnitude of phosphorylation was weaker and may be more transient, than the effect of Forskolin (FIG. 9(a)). Of note, Ser155 phosphorylation following IGF-1, EGF, or PDGF stimulation was not detected in HeLa cells (results not shown).
# It has been documented that Akt kinase activity, the serine kinase shown to phosphorylate BAD Ser136, is induced by growth factors and is dependent on PI 3-kinase activation (Datta et al., 1997; del Peso et al., 1997). In related experiments, Rat-1 cells were pretreated with either the PKA inhibitor H89, or the PI 3-kinase inhibitor Wortmannin (available, e.g., from Sigma, St. Louis, Mo.), followed by stimulation with Forskolin (also available from Sigma) or PDGF. […] This indicated the shift was PKA dependent (FIG. 9(b), lower panel, compare lanes 5 and 6). […] It therefore presumably had no effect on PDGF-induced activation of PI 3-kinase.
# To examine whether endogenous BAD is phosphorylated on Ser155 in response to growth factors, serum-starved Rat-1 fibroblasts were stimulated with PDGF. Whole cell lysates were prepared and endogenous BAD was immunoprecipitated. Proteins were separated by SDS-PAGE, and Ser155 phosphorylation was analyzed by Western blot using the phospho-S155 antibody and an anti-BAD antibody.
# Akt = Akt activation in HeLa cells (anti-phospho-S473 Akt western blot); format: cell-based, human; conditions: serum-starved HeLa cells, pretreatment then EGF
# Text: FIG. 10(B) is a series of western blots. Serum-starved HeLa cells expressing HA-BAD S155A, were pretreated with a buffer control (lanes 1 and 2), AG1478 (“AG”) (lane 3), Wortmannin (“Wm”) (lane 4), or H89 (lane 5). The cell cultures were then stimulated with a buffer control (lane 1) or EGF (lanes 2–5). Whole cell lysates were made from the cultures and the proteins were separated by SDS-PAGE. Blots were probed with either an anti-activated EGF receptor antibody (“activated EGFR”) (panel A), an anti-phospho-S473 Akt antibody (“pS473 Akt”) (panel B), or an anti-phospho-S155 BAD antibody (“pS155 BAD”) (panel D). Reblots were probed with either an anti-Akt antibody (“Akt”) (panel C) or an anti-HA BAD antibody (“HA-BAD”) (panel E).
# as §1
# Sequence of GST-Bcl-XL (Q07817 whole entry, the tested form may be a part): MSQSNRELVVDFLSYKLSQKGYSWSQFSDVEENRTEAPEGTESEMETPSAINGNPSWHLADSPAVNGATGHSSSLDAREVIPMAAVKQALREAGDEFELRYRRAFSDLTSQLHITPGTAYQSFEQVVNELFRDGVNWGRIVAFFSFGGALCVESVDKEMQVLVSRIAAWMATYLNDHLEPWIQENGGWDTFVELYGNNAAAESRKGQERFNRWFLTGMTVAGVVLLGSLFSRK
molecule,measurement,setting,value
"BAD BH3: Synthetic BAD BH3 peptide, residues 143–168 of SEQ ID NO: 2, unphosphorylated on Ser155 (AAQRYGRELRRMSDEFEGSFKGLPRP; listed as Mus musculus)",affinity of BAD BH3 peptide for Bcl-XL,"GST-Bcl-XL; ability to block binding of GST-Bcl-XL to plate-bound BAK BH3 peptide, compared with BAK BH3 control peptide",affinity similar to the BAK BH3 control peptide
CCCCCCCCCCCCCC(=O)O[C@@H]1[C@@H](C)[C@@]2(O)[C@@H](C=C(CO)C[C@]3(O)C(=O)C(C)=C[C@@H]23)[C@@H]2C(C)(C)[C@]12OC(C)=O [PMA],effect on BAD phosphorylation,BAD phosphorylation,promotes BAD phosphorylation
"BAD BH3-P: Synthetic BAD BH3 peptide, residues 143–168 of SEQ ID NO: 2, phosphorylated on Ser155 (AAQRYGRELRRM[pS]DEFEGSFKGLPRP; listed as Mus musculus)",reduction of affinity for Bcl-XL,GST-Bcl-XL; BAD BH3 peptide phosphorylated on Ser155,greater than 100 fold
"CNC[C@H](O)c1ccc(O)c(O)c1 [L-epinephrine, reference compound]",induction of band-shift of endogenous BAD,[1]; non-transfected HeLa cells,resulted in a new band-shift
same,induction of band-shift (Ser155 phosphorylation) of HA-BAD S112A/S136A,[1],induced a significant band-shift; also recorded: resulted in the phosphorylation of this site
IGF-1: insulin-like growth factor 1,Ser155 phosphorylation following growth factor stimulation,[1]; HeLa cells,not detected
same,induction of band-shift of HA-BAD S112A/S136A,[2],induced a band-shift
"BAD S112A: mutant of shorter murine BAD, serine corresponding to Ser112 substituted with alanine; HA- or GST-tagged",band-shift (phosphorylation) of expressed BAD construct in response to L-epinephrine,[1]; HeLa cells,significant band-shift
PDGF,Ser155 phosphorylation following growth factor stimulation,[1]; HeLa cells,not detected
same,induction of phosphorylation of endogenous BAD on Ser155,"[2]; serum-starved Rat-1 fibroblasts, phospho-S155 antibody",induced the phosphorylation of endogenous BAD on Ser155
same,induction of band-shift of HA-BAD S112A/S136A,[2],induced a band-shift
"ACTH: adrenocorticotropic hormone, GPCR ligand (SYSMEHFRWGKPVGKKRRPVKVYPNGAEDESAEAFPLEF; Corticotropin; UniProt P01189 138-176, looked up)",induction of band-shift (Ser155 phosphorylation) of HA-BAD S112A/S136A,[1],"neither TK (FIG. 6(a), lane 3) nor ACTH (FIG. 6(b), lane 5) alone induces a similar band-shift"
CN[C@@H]1C[C@H]2O[C@@](C)([C@@H]1OC)n1c3ccccc3c3c4c(c5c6ccccc6n2c5c31)C(=O)NC4 [staurosporin],effect on BAD phosphorylation,BAD phosphorylation,inhibits BAD phosphorylation
"COc1cc2ncnc(Nc3cccc(Cl)c3)c2cc1OC [AG1478, reference compound]",inhibition of EGF-induced phosphorylation of BAD on Ser155,"[1]; serum-starved HeLa cells transfected with HA-BAD S155A (so in the source), pretreatment then EGF, anti-phospho-S155 blot",blocked the phosphorylation of both
same,effect on EGF-induced activation/phosphorylation of endogenous Akt,Akt,blocked the phosphorylation of both

# From patent US7193044B1, “Compounds and methods for regulating apoptosis, and methods of making and screening for compounds that regulate apoptosis” (Immunogen, Inc., priority 2000, dated 2007)
